Laboratory results: patent US20150238579A1, “METHODS FOR ASSEMBLING A PRODUCT FOR MODULATING AN IMMUNOMODULATORY RESPONSE IN HUMANS” (INVESTFOOD, LLC, priority 2014, published 2015)

How the values were obtained:
[1] = system: human epithelial colorectal adenocarcinoma cells (CACO-2); assay: IL-8 production in IL-1β-activated CACO-2 cells (ELISA); assay type: cell-based; details: Caco-2, 24 h pre-incubation with 0.1 to 25 μM PTSO, then 1 ng/ml IL-1β, FIG. 5
Experimental: The effects of different concentrations of PTSO on cytokine production (IL-8) in the epithelial cell line human epithelial colorectal adenocarcinoma cells (CACO-2) activated by IL-1β were evaluated. IL-8 acts as a neutrophil attractant, which participates in the neutrophil infiltration that occurs in mucosal sites affected by an inflammatory process.
The human colonic adenocarcinoma cell line CACO-2 was obtained from the Cell Culture Unit of the University of Granada (Granada, Spain) (ECACC reference number: 86010202). Cells from the human colonic adenocarcinoma cell line CACO-2 were cultured in RPMI 1640 (Sigma) supplemented with 10% fetal bovine serum (Sigma), 2 mM glutamine and 0.05 mM mercaptoethanol in a humidified 5% CO2 atmosphere at 37° C. The cultured cells were seeded onto 24-well plates until confluence and pre-incubated for twenty-four hours (24 hr) with the different concentrations of the test compound (ranging from 0.1 to 25 μM of PTSO), and then stimulated with 1 ng/ml IL-1β. […] The effects of the different concentrations of PTSO on cell viability were assessed by using the methylthiazol terazolium (MTT) assay (Promega), following the same protocol of incubation of the test compound similar to that described above.

[2] = system: human T cell line JURKAT E6.1; assay: IFN-γ production in ionomycin/PMA-stimulated JURKAT E6.1 cells (ELISA); assay type: cell-based; details: JURKAT E6.1, 2 and 24 h pre-incubation with 0.1 to 25 μM PTSO, then 40 nM ionomycin and 0.5 μM PMA, FIG. 6
Experimental: The human T cell line JURKAT E6.1 was obtained from the Cell Culture Unit of the University of Granada (Granada, Spain) (ECACC reference number: 88042803). Cells from the human T cell line JURKAT E6.1 were cultured in RPMI 1640 (Sigma) supplemented with 10% fetal bovine serum (Sigma), 2 mM glutamine and 0.05 mM mercaptoethanol in a humidified 5% CO2 atmosphere at 37° C. The cultured cells from the human T cell line JURKAT E6.1 were seeded onto 24-well plates at the concentration of 500,000 cells/ml and pre-incubated for 2 and 24 hours with the different concentrations of the test compound (ranging from 0.1 to 25 μM of PTSO), and then stimulated with 40 nM ionomycin and 0.5 μM of PMA. After twenty four hours (24 hours), the supernatants were collected and centrifuged at 1,000 g for 10 min, and stored at −80° C. for the determination of IFN-γ levels by ELISA (GE Healthcare).

Jurkat cells = assay: Cell viability (MTT assay), Jurkat; assay type: cell-based, human; details: concentrations up to 25 μM
[3] = system: human acute monocytic leukemia cell line THP-1; assay: IL-6 production in LPS/PMA-activated THP-1 cells (ELISA); assay type: cell-based
Experimental: (§1) The effects of different concentrations of PTSO on cytokine production (IL-1β and IL-6) in the human acute monocytic leukemia cell line THP-1 activated by lipopolysaccharide (LPS) and phorbol 12-myristate 13-acetate (PMA) were evaluated. Of note, IL-1β and IL-6 cytokines have been reported to play a key role in the activated immune response that takes place in different inflammatory and/or immune conditions.
(§2) The human acute monocytic leukemia cell line THP-1 was obtained from the Cell Culture Unit of the University of Granada (Granada, Spain) (ECACC reference number: 88081201). These cells were cultured in Roswell Park Memorial Institute (RPMI) 1640 medium (Sigma, St Louis, Mo., USA) supplemented with 10% fetal bovine serum (Sigma), 2 mM glutamine and 0.05 mM mercaptoethanol in a humidified 5% carbon dioxide (CO2) atmosphere at 37° C. The cultured cells were seeded onto 24-well plates at a density of 5×10^5 cells/ml and pre-incubated for twenty four (24) hours with the different concentrations of the test compound (ranging from 0.1 to 25 μM of PTSO), and then stimulated with 1 μg/ml LPS and 1 μM phorbol 12-myristate 13-acetate (PMA). After twenty-four hours, the supernatants were collected and centrifuged at 1,000 g for 10 min, and then stored at −80° C. for the determination of IL-1β and IL-6 levels by an enzyme-linked immunosorbent assay (ELISA) (GE Healthcare, Little Chalfont, UK).

THP-1 cells = assay: Cell viability (MTT assay), THP-1; assay type: cell-based, human; details: THP-1, concentrations up to 25 μM
[4] = system: human acute monocytic leukemia cell line THP-1; assay: IL-1β production in LPS/PMA-activated THP-1 cells (ELISA); assay type: cell-based; details: THP-1, 24 h pre-incubation with 0.1 to 25 μM PTSO, then 1 μg/ml LPS and 1 μM PMA, FIG. 3
Experimental: as §1
as §2, with “After twenty-four hours, the supernatants were collected and centrifuged at 1,000 g for 10 min, and then stored at −80° C. for the determination of IL-1β and IL-6 levels by an enzyme-linked immunosorbent assay (ELISA) (GE Healthcare, Little Chalfont, UK).” left out

CACO-2 cells = assay: Cell viability (MTT assay), CACO-2; assay type: cell-based, human; details: CACO-2, concentrations up to 25 μM
Experimental: The human colonic adenocarcinoma cell line CACO-2 was obtained from the Cell Culture Unit of the University of Granada (Granada, Spain) (ECACC reference number: 86010202). Cells from the human colonic adenocarcinoma cell line CACO-2 were cultured in RPMI 1640 (Sigma) supplemented with 10% fetal bovine serum (Sigma), 2 mM glutamine and 0.05 mM mercaptoethanol in a humidified 5% CO2 atmosphere at 37° C. The cultured cells were seeded onto 24-well plates until confluence and pre-incubated for twenty-four hours (24 hr) with the different concentrations of the test compound (ranging from 0.1 to 25 μM of PTSO), and then stimulated with 1 ng/ml IL-1β. After twenty four hours (24 hr), the supernatants were collected and centrifuged at 1,000 g for 10 min, and stored at −80° C. for the determination of IL-8 levels by ELISA (GE Healthcare). The effects of the different concentrations of PTSO on cell viability were assessed by using the methylthiazol terazolium (MTT) assay (Promega), following the same protocol of incubation of the test compound similar to that described above.

For `CCCSS(=O)(=O)CCC` [PTSO, 1-propylsulfonylsulfanylpropane], the “production of IL-8 cytokine” value [1] was “demonstrated immunomodulatory activity on the production of IL-8 cytokine”, the “production of interferon gamma (IFN-γ)” value [2] was “modulating immune function on the production of interferon gamma (IFN-γ)” and the cell viability (Jurkat cells) was “did not significantly affect the viability”. The “production of IL-6” value ([3]; THP-1, 24 h pre-incubation with 0.1 to 25 μM PTSO, then 1 μg/ml LPS and 1 μM PMA, 24 h, FIG. 4) was “can modulate the production of IL-6”, the “production of IL-6 at 0.1 µM” value ([3]; THP-1 cells, at 0.1 µM) was “can increase the production of IL-6” and the “production of IL-6 at more than 1 mM” value ([3]; THP-1 cells, starting from more than 1 mM dose) was “a clear immunosuppressive effect is observed”. For the same compound, the cell viability (THP-1 cells) was “did not significantly affect the viability”, the “production of IL-1β” value [4] was “reduce the production of IL-1β in a dose-dependent manner” and the cell viability (CACO-2 cells) was “did not significantly affect the viability”.
